In the RepoRT retention time repository (doi:10.1016/j.foodchem.2018.11.056):

Assay: RP, Thermo Scientific Hypersil GOLD aQ, 100 × 2.1 mm, 1.9 µm, 30 °C, 0.3 mL/min, estimated dead time 0.73 min; A: water + 0.1% formic acid; B: methanol + 0.1% formic acid + 4 mM ammonium formate; gradient (min/%B) 0/0 1/0 8/100 10/100
Conditions: stereoisomer not certain
`C=C1C2OC3C=C(C)C(=O)C(O)C3(CO)C1(C)CC2O` (stereo not given) showed an LC retention time of 4.77 min. In the case of `CC(=O)OCC12C(C=C(C)C(=O)C1O)OC1C(O)CC2(C)C12CO2` (stereo not given), the LC retention time is reported as 5.25 min. `CC(C)CC1NC(=O)C(C)N(C)C(=O)CNC(=O)C(=Cc2ccccc2)N(C)C1=O` (stereo not given) showed an LC retention time of 6.66 min. Work on `CC(=O)OCC12CC(OC(=O)CC(C)C)C(C)=CC1OC1C(O)C(O)C2(C)C12CO2` (stereo not given) yielded an LC retention time of 6.52 min. Work on `CC1=CC2OC3C(O)C(O)C(C)(C2(CO)CC1OC(=O)CC(C)C)C31CO1` (stereo not given) yielded an LC retention time of 6.17 min. With `COc1cc(=O)oc(C=CC=CC=CC(C)=CC2(C)OC(C)C(C)(O)C2O)c1C` (stereo not given) the LC retention time was 7.23 min. For `CC1CCCC(O)CCCCCc2cc(O)cc(O)c2C(=O)O1` (stereo not given), the LC retention time was 6.88 min. Work on `COc1c(C)c2c(c(O)c1CC=C(C)CCC(=O)O)C(=O)OC2` yielded an LC retention time of 6.77 min. With `CC1=C2C(=COC(C)C2C)C(=O)C(C(=O)O)=C1O` (stereo not given) the LC retention time was 6.53 min. In the case of `CC1=CC2OC3C(O)C(O)C(C)(C34CO4)C2(CO)C(O)C1=O` (stereo not given), the LC retention time is reported as 3.7 min. `O=c1cc(CO)occ1O` gave an LC retention time of 2.6 min. Work on `Cc1cc(O)cc2oc(=O)c3c(O)cc(O)cc3c12` yielded an LC retention time of 6.89 min. `COC1C(OC(=O)C=CC=CC=CC=CC(=O)O)CCC2(CO2)C1C1(C)OC1CC=C(C)C` (stereo not given) showed an LC retention time of 7.52 min. With `COc1cc2c(c3oc4cccc(O)c4c(=O)c13)C1C=COC1O2` (stereo not given) the LC retention time was 7.49 min. `CC1CCCC(=O)CCCCCc2cc(O)cc(O)c2C(=O)O1` (stereo not given) showed an LC retention time of 7.1 min. In the case of `CCCCC(C)C(OC(=O)CC(CC(=O)O)C(=O)O)C(CC(C)CC(O)CCCCC(O)CC(O)C(C)N)OC(=O)CC(CC(=O)O)C(=O)O` (stereo not given), the LC retention time is reported as 6.81 min. For `CC(C)CC1C(=O)N2CCCC2C2(O)OC(NC(=O)C3C=C4c5cccc6[nH]cc(c56)CC4N(C)C3)(C(C)C)C(=O)N12` (stereo not given), the LC retention time was 6.5 min. For `COCC1OC(=O)c2coc3c2C1(C)C1=C(C3=O)C2CCC(=O)C2(C)CC1OC(C)=O` (stereo not given), the LC retention time was 6.14 min. Compound `CN1C(=O)C23CC4=CC=CC(O)C4N2C(=O)C1(CO)SS3` (stereo not given) has an LC retention time of 5.48 min. Work on `CC(C)C1(NC(=O)C2CC3c4cccc5[nH]cc(c45)CC3N(C)C2)OC2(O)C3CCCN3C(=O)C(Cc3ccccc3)N2C1=O` (stereo not given) yielded an LC retention time of 6.46 min. With `CC1CCCC(=O)CCCC=Cc2cc(O)cc(O)c2C(=O)O1` (stereo not given) the LC retention time was 7.16 min. Compound `C=CC(C)(C)C12C=C(O)C(=O)N3C(=Cc4cnc[nH]4)C(=O)NC31N(OC)c1ccccc12` (stereo not given) has an LC retention time of 6.11 min. `CC1CCC2C(C)(C)C(O)CCC2(C)C12Cc1c(O)cc3c(c1O2)CNC3=O` (stereo not given) gave an LC retention time of 7.51 min. `C=CC(C)(C)C12CC3C(=O)NC(=Cc4cnc[nH]4)C(=O)N3C1Nc1ccccc12` (stereo not given) gave an LC retention time of 6.61 min. `O=C1C=C2C(=CCOC2O)O1` (stereo not given) gave an LC retention time of 2.12 min. Work on `CC1=CC2OC3C(O)C(O)C(C)(C2(CO)CC1O)C31CO1` (stereo not given) yielded an LC retention time of 3.76 min. For `CC1Cc2ccc(C(=O)NC(Cc3ccccc3)C(=O)O)c(O)c2C(=O)O1` (stereo not given), the LC retention time was 6.78 min. Compound `CC1=CC2OC3C(OC4OC(CO)C(O)C(O)C4O)CC(C)(C34CO4)C2(CO)C(O)C1=O` (stereo not given) has an LC retention time of 4.29 min. For `CCCCC(C)C(OC(=O)CC(CC(=O)O)C(=O)O)C(CC(C)CCCCCCC(O)CC(O)C(C)N)OC(=O)CC(CC(=O)O)C(=O)O` (stereo not given), the LC retention time was 7.19 min. Compound `CCCCC(C)C(OC(=O)CC(CC(=O)O)C(=O)O)C(CC(C)CC(O)CCCCCCC(O)C(C)N)OC(=O)CC(CC(=O)O)C(=O)O` (stereo not given) has an LC retention time of 6.99 min. In the case of `COc1cc2c(c3oc(=O)c4c(c13)CCC4=O)C1CCOC1O2` (stereo not given), the LC retention time is reported as 6.11 min. Work on `CC(=O)OC1C(O)C2OC3C=C(C)C(=O)C(O)C3(CO)C1(C)C21CO1` (stereo not given) yielded an LC retention time of 4.69 min. With `CC(C)C1(NC(=O)C2C=C3c4cccc5[nH]cc(c45)CC3N(C)C2)OC2(O)C3CCCN3C(=O)C(Cc3ccccc3)N2C1=O` (stereo not given) the LC retention time was 6.55 min. Work on `COc1cc2c(c3oc(=O)c4c(c13)CCOC4=O)C1C=COC1O2` (stereo not given) yielded an LC retention time of 5.89 min. In the case of `COc1ccc2c3c4n(c2c1)C(C=C(C)C)OOC(C)(C)CC4N1C(=O)C2CCCN2C(=O)C1(O)C3O` (stereo not given), the LC retention time is reported as 7.33 min. With `CC(=O)OCC12CC(O)C(C)=CC1OC1C(O)C(OC(C)=O)C2(C)C12CO2` (stereo not given) the LC retention time was 4.9 min. Work on `CC(C)CC1C(=O)N2CCCC2C2(O)OC(C)(NC(=O)C3C=C4c5cccc6[nH]cc(c56)CC4N(C)C3)C(=O)N12` (stereo not given) yielded an LC retention time of 6.11 min. Compound `CC(=O)OCC12CC(OC(=O)CC(C)C)C(C)=CC1OC1C(O)C(OC(C)=O)C2(C)C12CO2` (stereo not given) has an LC retention time of 6.78 min. For `COc1cc2c(c3oc(=O)c4c(c13)CCC4=O)C1C=COC1O2` (stereo not given), the LC retention time was 6.26 min. `COc1cc2c(c3oc(=O)c4c(c13)CCOC4=O)C1CCOC1O2` (stereo not given) gave an LC retention time of 5.8 min. With `CC1=CC2c3cccc4[nH]cc(c34)CC2N(C)C1` (stereo not given) the LC retention time was 5.35 min. Work on `COc1cc2c(c3oc(=O)c4c(c13)CCC4=O)C1(O)C=COC1O2` (stereo not given) yielded an LC retention time of 5.77 min. `CC(=O)OC1CC2(C)C3(CO3)C1OC1C=C(C)C(=O)C(O)C12CO` (stereo not given) showed an LC retention time of 5.49 min. In the case of `CC1=CC2OC3C(O)CC(C)(C34CO4)C2(CO)C(O)C1=O` (stereo not given), the LC retention time is reported as 4.26 min. Compound `CC(C)(O)C1OC2CCC3(C)C(O)(CCC4Cc5c([nH]c6ccccc56)C43C)C2=CC1=O` (stereo not given) has an LC retention time of 7.81 min.
